Data as given in publication PMC8629322 (ACS chemical neuroscience, 2020).

T1: FAM-RNA:MSUT2 ZF complex (poly(A):MSUT2 RNA-protein interaction) (Homo sapiens, UniProt Q6PJT7)
T1 sequence (Q6PJT7 601-736): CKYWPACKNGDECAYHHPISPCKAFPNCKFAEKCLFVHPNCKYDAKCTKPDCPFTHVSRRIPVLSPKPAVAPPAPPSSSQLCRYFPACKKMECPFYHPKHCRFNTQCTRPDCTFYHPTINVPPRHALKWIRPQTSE

T2: PABPN1 (Homo sapiens, UniProt Q86U42)
T2 sequence (Q86U42 1-306): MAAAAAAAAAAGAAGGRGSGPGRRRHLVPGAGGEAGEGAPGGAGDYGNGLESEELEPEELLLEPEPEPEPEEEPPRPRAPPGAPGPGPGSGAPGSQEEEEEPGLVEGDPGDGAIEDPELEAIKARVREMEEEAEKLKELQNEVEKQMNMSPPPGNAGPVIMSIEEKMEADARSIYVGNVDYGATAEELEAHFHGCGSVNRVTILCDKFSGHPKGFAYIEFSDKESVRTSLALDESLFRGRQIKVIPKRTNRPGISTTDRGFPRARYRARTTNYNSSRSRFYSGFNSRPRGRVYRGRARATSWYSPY

T3: biotinylated RNA:GST-MSUT2 ZF (Homo sapiens, UniProt Q6PJT7)
T3 sequence (Q6PJT7 601-736): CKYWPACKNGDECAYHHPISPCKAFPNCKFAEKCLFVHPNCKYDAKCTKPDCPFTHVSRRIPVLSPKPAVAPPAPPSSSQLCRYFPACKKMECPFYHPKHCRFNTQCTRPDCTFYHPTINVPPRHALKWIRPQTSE

T4: MSUT2 ZF (CCCH domains only) (UniProt Q6PJT7 601-736)
T4 sequence: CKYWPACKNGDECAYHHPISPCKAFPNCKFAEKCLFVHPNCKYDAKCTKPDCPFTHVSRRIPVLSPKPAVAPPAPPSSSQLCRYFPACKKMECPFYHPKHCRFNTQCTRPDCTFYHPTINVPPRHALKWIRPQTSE


Legend:
[1] = biological target: T1, FAM-RNA:MSUT2 ZF complex (poly(A):MSUT2 RNA-protein interaction); assay: Fluorescence polarization assay of FAM-poly; format: binding
PABPN1 = biological target: T2, PABPN1; assay: PABPN1 fluorescence polarization counter screen; format: binding
[2] = biological target: T3, biotinylated RNA:GST-MSUT2 ZF; assay: AlphaScreen orthogonal poly; format: binding; details: for inhibition activity by AlphaScreen: dose-response, 50 nM biotinylated RNA, 50 nM GST-MSUT2
[3] = cited from earlier work
poly(A) = details: cited from earlier work
Cell viability assay = details: human, HEK293 cells
[4] = system: albumin and α1-acid glycoprotein in the plasma; details: cited from earlier work
[5] = system: hippocampus neuronal loss; details: rat model of chronic cerebral hypoperfusion; cited from earlier work
efflux transporters = details: cited from earlier work
[6] = biological target: T4, MSUT2 ZF (CCCH domains only); assay: competition

Molecule	IC50 [1] [µM]	IC50 (PABPN1) [µM]	inhibition activity by AlphaScreen [2]	also measured
CC(C)/N=c1\cc2n(-c3ccc(Cl)cc3)c3ccccc3nc-2cc1Nc1ccc(Cl)cc1 [clofazimine]	0.731	23	dose-dependent inhibition activity	crossing of the blood-brain barrier [3]: unable to cross the blood-brain barrier; interaction with poly(A) (poly(A)): little interaction; viability at 72 h (Cell viability assay): > 90%
CC(C)(C)NC(=O)[C@@H]1CN(Cc2cccnc2)CCN1C[C@@H](O)C[C@@H](Cc1ccccc1)C(=O)N[C@H]1c2ccccc2C[C@H]1O [indinavir]	0.247	35.8	–	–
OCCOCCN1CCN(C(c2ccccc2)c2ccc(Cl)cc2)CC1 (centres unmarked) [hydroxyzine]	–	9.09	–	–
CN1C2CCCC1CC(NC(=O)c1nn(C)c3ccccc13)C2 (centres unmarked) [granisetron]	0.306	8.65	–	–
CNCC[C@H](Oc1cccc2ccccc12)c1cccs1 [duloxetine]	–	4.98	dose-dependent inhibition activity	concentration range of inhibitory response in FP assay ([1]; acted over 4 log units): 0.01 to 10 µM; concentration range of inhibition measured by AS ([2]; over a single log unit): 1.0 to 10 µM; penetration into cerebral spinal fluid [3]: crosses into cerebral spinal fluid at a much lower rate than other antidepressants; bound to albumin and α1-acid glycoprotein in the plasma [4]: ~ 90%; neuronal loss in the hippocampus [5]: attenuated neuronal loss in the hippocampus; viability at 72 h (Cell viability assay): > 90%
CC(C)(C)NC(=O)[C@@H]1C[C@@H]2CCCC[C@@H]2CN1C[C@@H](O)[C@H](Cc1ccccc1)NC(=O)[C@H](CC(N)=O)NC(=O)c1ccc2ccccc2n1 [saquinavir]	–	0.617	dose-dependent inhibition activity	brain penetrance [3]: low brain penetrance; efflux transporter substrate (efflux transporters): substrate of efflux transporters; viability at 72 h, 40 µM (Cell viability assay): 65%
CC(C(=O)O)c1ccc(-c2ccccc2)c(F)c1 (centres unmarked) [flurbiprofen]	–	6.69	–	–
AAAAAAAAAAAAAAA (ssRNA) [unlabeled poly(A)15 RNA]	–	–	–	IC50 [6]: 0.29 µM
